Test results: a melting point compilation (Tetko et al.; mined from patent text by program, amines drawn as free bases though some values may be those of a salt)

Compound | melting point [°C]
COc1cccc(C=O)c1OC(C)=O | 75.4 to 76.2
CSc1nc(O)nn1C(C)C | 90 to 92
O=C(Nc1cccnc1)C(Cl)(Cl)Cl | 149 to 151
CCOC(=O)c1csc2nc(C(=O)OC)cn12 | 187 to 189
CCc1c(C)[nH]c2cc(OCCN(C)C)c(Cl)cc2c1=O | 227 to 230
CC(C)(C)c1ccc2oc(-c3ccc(O)cc3)cc2c1 | 172 to 174
CCOC(=O)c1c(C)cc2nc(C)n(-c3ccccc3C)c(=O)c2c1C | 129 to 130
CCCCCC(COc1ccc(C(=O)O)cc1)c1ccc2c(c1)C(C)(C)CCS2 (racemic) | 168 to 169
Cc1cc(Oc2cccc(C(F)(F)F)c2)nn1C(=O)Nc1ccc(F)cc1 | 70 to 72
CC(=O)c1c(-c2ccc(F)cc2)sc(-c2ccncc2)c1C | 116 to 118
Cc1cc(C)nc(S(=O)(=O)Nc2c(Cl)ccc(C)c2Cl)n1 | 234 to 235
COc1ccc2c(c1)C(=S)N(C)CC(CCCl)O2 (centres undefined) | 98 to 100
CC1(C)CC(=O)Nc2cc3nc(-c4ccc(C(N)=O)cc4)[nH]c3cc21 | 317 to 319
CC1(N)CCN(c2ncc3ncnc(Nc4ccc(F)c(Cl)c4)c3n2)CC1 | 188 to 190
COc1ccc(-c2nc(SCS(C)=O)[nH]c2-c2ccc(OC)cc2)cc1 (centres undefined) | 84.5 to 86.5
N#Cc1ccc(-c2nc(-c3ccc(F)cc3)c(-c3ccnc4ccccc34)[nH]2)cc1 | 294 to 295
CCCCCCCCCCCCCCOc1cccc(CBr)c1CBr | 55.7 to 56.5
CC(=O)NC1CC(N)(C(=O)O)C2C(C(=O)O)C12 (centres undefined) | > 275
CC(C)(C)OC(=O)c1nc(-c2ccc(Cl)cc2Cl)n(-c2ccc(Cl)cc2)c1C#N | 210 to 212
COc1ccc2c(c1)C=Cn1c(nnc1S(C)=O)C2 (centres undefined) | 241 to 242

Compound | melting point [°C]
COC12C=CC(CC1)CC2C(=O)O (centres undefined) | 77 to 81
Cc1noc(C)c1S(=O)(=O)Nc1ccc(Cl)cc1[N+](=O)[O-] | 130 to 131
CCc1nc(O)cc(O)n1 | 312 to 315
COc1cc(CCN(C)Cc2ccc(OC)c(OC)c2)ccc1NC(=O)c1cccc2c(=O)c3cccc(F)c3[nH]c12 | 161 to 162
Cc1cc2c(Cl)cc(F)c(-c3ccc(C(F)(F)F)n(C)c3=O)c2o1 | 138 to 140
CCOC(=O)c1cc2cc(C)c(C(F)(F)F)cc2[nH]1 | 176 to 178
O=C1N(c2ccc(Cl)cc2F)C(=S)C2CCCCC12O (centres undefined) | 156 to 157
O=CN1CCN(Cc2nc3ccccc3[nH]2)CC1 | 194 to 198
CN(C)C(=O)N[C@H]1CC[C@H](CCN2CCN(c3ccc(O)c(Cl)c3Cl)CC2)CC1 | 278 to 280
CCOC(=O)C1=C[C@@H](OC(CC)CC)[C@@H](NC(C)=O)[C@H](O)[C@@H]1O | 154
CCCOc1ccc(-c2ncc(C#N)c(Cl)n2)cc1 | 193 to 194
COc1cc2ncn(CCO)c(=O)c2cc1OC | 130
Cc1c(F)c(N2CCN(C=O)C(C)C2)cc2c1c(=O)c(C=O)cn2C1CC1 (centres undefined) | 258 to 260
CCCCOc1c(CNC(=O)OC(C)(C)C)n(CC(C)C)c(=O)c2ccc(C(=O)OC)cc12 | 148 to 149
Cn1nc(-c2c(F)cccc2Cl)nc1-c1ccc(CBr)c(Cl)c1 | 124 to 126
CC12CC(=O)NN=C1c1ccc(Br)cc1C2 (centres undefined) | 242
CC(=O)N1CCn2c(CN3CCOCC3)ccc2C1 | 117 to 118
CC1NC(=NC2CNCCO2)N(CCO)C1C (centres undefined) | 108 to 109
O=C(Nc1ccc(C#CC2(O)CN3CCC2CC3)cc1)C(F)(F)F (centres undefined) | 222 to 223
CCOc1cc2c(Cl)cc(C)nc2nc1C | 144 to 147

Compound | melting point [°C]
Cn1ncc(/C=C/C(=O)Nc2ccc(Cc3nnco3)cc2)c1-c1ccc(F)cc1 | 223 to 224
Cc1ccc(-c2ccc3c(c2)C=C(C(=O)Nc2ccc(C#N)cc2)CCO3)cc1 | 187 to 189
CC(C)(C)C(=O)OCOC(=O)c1cn(CC(F)(F)F)c2cc3c(cc2c1=O)OCO3 | 190 to 191
COc1cc(-c2nc(C)c(C(=O)O)s2)cc(OC)c1OC | 205 to 207
S=C(NCCN(Cc1ccc(Cl)c(Cl)c1)c1ccc(Br)cn1)Nc1ccc2nn[nH]c2c1 | 190 to 192
CCCCC(=O)NCc1ccc2c(c1)C(=O)N(C1CCC(=O)NC1=O)C2=O (centres undefined) | 184 to 186
CN1C(=O)N(CBr)C(=O)C1(C)C | 86 to 88
CCOC(=O)C1(F)C(=O)NC(=O)NC1ON=C1CCC1 (centres undefined) | 188 to 189
CCCCCCCCNC(=O)CP(=O)(O)O | 142 to 143
Cc1cc2cc(CN3CCC(CCCC(=O)N4CCCCC4)CC3)cnc2cc1NC(=O)c1ccc(-c2ccc(F)cc2)cc1 | 179
CC(C)(C1OCCO1)C(O)(COc1ccc(F)cc1)Cn1cncn1 (centres undefined) | 102 to 104
CCc1c(Cc2c[nH]c3ccccc23)[nH]c(=O)c(CC(C)C)[n+]1[O-] | 212 to 214
Fc1ccc2[nH]c(CC3CCN(CC4CCc5ccccc5O4)CC3)cc2c1 (centres undefined) | 187 to 190
O=c1[nH]c2cc(Cl)c(Cl)c(Cn3cncn3)c2[nH]c1=O | > 320
CC(CN1CC=C(c2ccc(Cl)cc2)CC1)C(O)c1ccc(Cl)cc1 (centres undefined) | 110 to 112
NCc1cc(-c2ccc(C(F)(F)F)cc2)no1 | 59
CC(C)CCN1C(=O)C(NC(=O)Oc2ccccc2)C(=O)N(c2ccccc2)c2ccc(Cl)cc21 (centres undefined) | 190 to 195
CCOC(=O)c1ncn2c1[C@@H]1CCN1C(=O)c1c-2ccc(F)c1Cl | 161 to 163

Continued, values first:

melting point [°C] | Compound
244 to 245 | CSc1nsc(NC(=O)Oc2ccccc2)c1C#N
70 to 72 | CC(SC(=S)c1cc(C(C)(C)C)c(O)c(C(C)(C)C)c1)c1ccccc1 (centres undefined)
234 to 235 | c1ccc(-c2cc3nccnc3[nH]2)nc1
158 to 160 | O=c1oc(-c2cccc(Cl)c2)nc2ccccc12
201 to 203 | COc1ccc(C(=O)Nc2ccccc2C(=O)NCCCC(=O)O)c(O)c1
276 to 278 | O=C(OCc1ccccc1)N1CCC(c2[nH]c(=O)c3ccccc3c2-c2ccccc2)CC1
182 | CCCN1CCC(c2cccc(C(N)=O)c2)CC1
120 | CCC(=O)Nc1ccccc1C(=O)O
76 to 77 | Cc1cc(C(=O)Oc2ccccc2)c(O)c2ccccc12
230 to 233 | CN(C)C(=Cc1ccccc1[N+](=O)[O-])C(=O)CN1C(=O)c2ccccc2C1=O
225 to 229 | Cc1cc(-c2ccccc2O)nn1-c1ccccc1
161 | Clc1ccc(C2NCCc3c2[nH]c2ccccc32)cc1 (centres undefined)
212 to 213 | CC(=O)N(NC(=O)c1ccccc1)[C@@H]1c2cc(C#N)ccc2OC(C)(C)[C@H]1O (relative stereo)
174 to 175 | O=C(NC1CCN(CCC2CCCCC2)CC1)c1ccccc1
154 to 157 | CC1(c2ccccc2)OC(=O)C(Cl)(Cl)C(C(Cl)(Cl)Cl)N1OC(=O)Nc1ccccc1 (centres undefined)
> 300 | O=C(O)c1cn(-c2ccc(F)cc2F)c2c(F)c(N3Cc4cccc(F)c4C3)c(F)cc2c1=O
112 to 113 | O=C(NCCCSc1ccncc1)c1cccs1
100 to 102 | CCCCO/N=C(\C(=O)On1nnc2ccccc21)c1csc(NC(c2ccccc2)(c2ccccc2)c2ccccc2)n1
95 to 100 | CCOc1ccccc1N1CCN(Cc2nc3ccccc3[nH]2)CC1
113 to 114 | COC(=O)N1CCc2cc(S(=O)(=O)Cl)ccc21
178 to 180 | CC(C)(NCCCn1ccnc1)c1ccc(-c2ccc(O)cc2)cc1
44 to 47 | CCCOc1ccc(C(=O)OC)cc1C(C)=O
201 | O=C(Nc1ccc(C2CC(F)(F)C2(F)Cl)cc1)Nc1nonc1-c1ccccc1 (centres undefined)

melting point [°C] | Compound
156 to 158 | CCN(C(=O)C(NS(=O)(=O)c1c(C)cc(C)cc1C)C(C)C)c1ccccc1 (centres undefined)
167 to 170 | O=C(O)C(=O)c1ccc(OCC(=O)c2ccc3ccccc3c2)cc1
205 to 215 | O=c1c2ccc(Cl)cc2[nH]n1-c1ccccc1F
113 to 114 | COc1ccc(CCNC(=O)Cc2ccc(C(=O)c3ccccc3)cc2)cc1OC
236 to 238 | CN1CCN(c2cc(F)cc3c(=O)cc(C(=O)Nc4ccc(N5CCN(C(=O)O)CC5)cc4)oc23)CC1
151 to 152 | O=C(O)C(=O)CC(=O)c1ccn(Cc2ccccc2)c1
200 | COc1ccc(Cl)cc1N1C(=O)NC(=O)C1c1ccccc1 (centres undefined)
105 to 107 | CCOC(=O)Oc1ccc(S(=O)(=O)N2c3cc(F)c(F)cc3-n3cccc3C2CC)cc1 (centres undefined)
142 | CCC(Nc1ccccc1C(=O)O)c1nccnc1OCc1ccccc1 (centres undefined)
182 to 185 | CCc1cn(C2CC(O)C(CN(C)C(=O)Cc3ccccc3Br)O2)c(=O)[nH]c1=O (centres undefined)
> 250 | CS(=O)(=O)Nc1cc2oc(N)c(C(N)=O)c(=O)c2cc1Oc1ccccc1
85.5 to 89 | CN(C)c1ccccc1C(=O)N1CCC(=O)c2ccc(Cl)cc21
83 to 85 | CCCC(O)C1(CCC)c2ccccc2-c2ccccc21 (centres undefined)
94 | CCC1CCc2c(sc3cc(OCc4ccccc4)ccc3c2=O)C1 (centres undefined)
94 to 95 | Cc1ccc2[nH]ncc2c1OCc1ccccc1
98 | COc1ccc2ncnc(N3CCCc4ccccc43)c2c1
48 to 51 | CCCc1c(OCCCCCCCC(=O)NCCCCc2cccnc2)ccc(C(C)=O)c1O
81.5 to 84 | O=C(O)CCCCCCCCCCn1nc(-c2ccccc2)c(-c2ccccc2)c1-c1ccccc1
161 to 162 | O=c1ccc(C(c2ccccc2)c2ccccc2)n[nH]1
194 to 198 | CCc1nn(C2CCCC2)c2cc(C(=O)Nc3ccc(C(=O)NOCc4ccccc4)cc3)ccc12
208 to 210 | O=C1Nc2ccccc2C1=Cc1cccs1
148 to 149 | COc1ccc(C(=O)Nc2ccc(F)c(F)c2)cc1NCc1cccnc1
136 to 137 | N#Cc1cccc(-c2ccccn2)n1
